Source: ChEMBL document CHEMBL1124789, “Angiotensin-converting enzyme inhibitors. 9. Novel [[N-(1-carboxy-3-phenylpropyl)amino]acyl]glycine derivatives with diuretic activity” (J Med Chem, 1990)
Calls of active or inactive are those of the source. No cut-off for these calls is given here.

What was measured:
[1] = target: T1, Angiotensin-converting enzyme (Rattus norvegicus) (UniProt P47820); assay: (§1) In vitro inhibitory activity against Angiotensin I converting enzyme (ACE); conditions: concentration not given here
T1 sequence (whole entry): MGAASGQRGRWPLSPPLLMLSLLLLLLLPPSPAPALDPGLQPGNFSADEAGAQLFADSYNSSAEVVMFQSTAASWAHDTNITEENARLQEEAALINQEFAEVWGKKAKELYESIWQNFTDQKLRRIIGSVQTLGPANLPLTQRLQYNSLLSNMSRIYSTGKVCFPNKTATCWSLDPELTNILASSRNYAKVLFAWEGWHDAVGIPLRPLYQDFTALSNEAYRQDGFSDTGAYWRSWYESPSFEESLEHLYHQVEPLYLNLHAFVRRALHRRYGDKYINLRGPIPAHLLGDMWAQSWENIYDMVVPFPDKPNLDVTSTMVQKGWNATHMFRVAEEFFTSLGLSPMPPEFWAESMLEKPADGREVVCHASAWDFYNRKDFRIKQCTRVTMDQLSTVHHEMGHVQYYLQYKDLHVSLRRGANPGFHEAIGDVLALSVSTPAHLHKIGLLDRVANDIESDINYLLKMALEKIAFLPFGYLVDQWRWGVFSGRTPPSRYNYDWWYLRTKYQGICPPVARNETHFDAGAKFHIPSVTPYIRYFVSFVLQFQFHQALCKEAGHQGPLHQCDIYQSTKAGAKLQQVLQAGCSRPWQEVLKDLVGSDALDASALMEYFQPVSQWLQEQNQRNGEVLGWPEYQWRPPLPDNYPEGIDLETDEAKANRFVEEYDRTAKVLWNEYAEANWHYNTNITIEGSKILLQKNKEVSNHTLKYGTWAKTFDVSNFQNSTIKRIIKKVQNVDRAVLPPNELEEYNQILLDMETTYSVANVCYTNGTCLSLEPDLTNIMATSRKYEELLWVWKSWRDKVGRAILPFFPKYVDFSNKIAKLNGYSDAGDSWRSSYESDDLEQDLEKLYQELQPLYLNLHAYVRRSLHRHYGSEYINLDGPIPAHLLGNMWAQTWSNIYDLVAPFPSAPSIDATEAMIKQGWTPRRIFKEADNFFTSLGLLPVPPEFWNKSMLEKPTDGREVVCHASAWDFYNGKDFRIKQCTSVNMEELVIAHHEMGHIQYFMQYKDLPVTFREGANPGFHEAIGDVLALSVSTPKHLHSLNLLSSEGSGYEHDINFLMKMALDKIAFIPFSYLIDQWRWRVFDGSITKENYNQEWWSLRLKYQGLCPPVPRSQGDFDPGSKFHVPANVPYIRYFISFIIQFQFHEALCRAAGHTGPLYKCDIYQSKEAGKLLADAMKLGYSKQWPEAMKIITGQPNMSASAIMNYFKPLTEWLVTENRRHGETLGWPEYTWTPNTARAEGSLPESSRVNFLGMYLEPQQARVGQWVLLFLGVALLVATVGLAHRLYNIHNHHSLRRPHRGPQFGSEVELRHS

[2] = target: T1, Angiotensin-converting enzyme (Rattus norvegicus); assay: Inhibition of Angiotensin I converting enzyme(ACE) at the dose of 10 mg/kg (ip) in rat; assay type: organism-based; design: dose 10 mg/kg; scale not given: the % may be the effect or the level left
[3] = target: T1, Angiotensin-converting enzyme (Rattus norvegicus); assay: Inhibition of Angiotensin I converting enzyme(ACE) at the dose of 10 mg/kg (po) in rat; assay type: organism-based; design: dose 10 mg/kg
[4] = system: Rattus norvegicus; assay: Diuretic activity (po);NI- No increase; assay type: functional, organism-based; conditions: Urine
[5] = organism: Rattus norvegicus; assay: Duration of action on ACE in rat; assay type: functional
[6] = target: T1, Angiotensin-converting enzyme (Rattus norvegicus); assay: Inhibition of Angiotensin I converting enzyme(ACE) at the dose of 100 mg/kg (ip) in rat; assay type: organism-based; design: dose 100 mg/kg
[7] = target: T1, Angiotensin-converting enzyme (Rattus norvegicus); assay: Inhibition of Angiotensin I converting enzyme(ACE) at the dose of 100 mg/kg (po) in rat; assay type: organism-based; design: dose 100 mg/kg
[8] = target: T2, Angiotensin-converting enzyme (Rattus norvegicus, UniProt P47820); assay: In vitro inhibitory activity against Angiotensin I converting enzyme(ACE)
T2 sequence (P47820 whole entry): T1 sequence (whole entry)

[9] = system: Rattus norvegicus; assay: Diuretic activity (ip);NI- No increase; assay type: functional, organism-based; conditions: Urine
[10] = target: T2, Angiotensin-converting enzyme; assay: as §1
[11] = target: T1, Angiotensin-converting enzyme (Rattus norvegicus); assay: Inhibition of Angiotensin I converting enzyme(ACE) at the dose of 30 mg/kg (po) in rat; assay type: organism-based; design: dose 30 mg/kg
[12] = target: Angiotensin-converting enzyme (Homo sapiens) (UniProt P12821); assay: In vitro inhibitory activity against Angiotensin I converting enzyme(ACE) in dog; conditions: Canis lupus familiaris; target entry is the homologue from another species; concentration not given here
[13] = system: Canis familiaris; assay: Diuretic activity (po) in dog; ND- Natriuresis and diuresis; assay type: functional, organism-based; conditions: Canis lupus familiaris; Urine
[14] = system: Canis familiaris; assay: Maximum percent decrease in blood pressure at the dose of 100 mg/kg ip; assay type: functional, Canis lupus familiaris; conditions: route intraperitoneal
[15] = system: Rattus norvegicus; assay: Diuretic activity (po); ND-Natriuresis&diuresis; assay type: functional, organism-based; conditions: Urine
[16] = target: Angiotensin-converting enzyme (Homo sapiens) (UniProt P12821); assay: Inhibition of Angiotensin I converting enzyme(ACE) at the dose of 100 mg/kg (ip) in dog; assay type: organism-based; design: dose 100 mg/kg; conditions: Canis lupus familiaris; target entry is the homologue from another species
[17] = system: Canis familiaris; assay: Diuretic activity (po) in dog; ND-Natriuresis&diuresis; assay type: functional, organism-based; conditions: Canis lupus familiaris; Urine
[18] = system: Rattus norvegicus; assay: Diuretic activity (po);ND- Natriuresis and diuresis; assay type: functional, organism-based; conditions: Urine
[19] = system: Rattus norvegicus; assay: Diuretic activity (ip);ND- Natriuresis and diuresis; assay type: functional, organism-based; conditions: Urine
[20] = system: Rattus norvegicus; assay: Diuretic activity (ip); NI-No Increase; assay type: functional, organism-based; conditions: Urine
[21] = system: Rattus norvegicus; assay: Diuretic activity (ip);NI-No increase; assay type: functional, organism-based; conditions: Urine
[22] = system: Rattus norvegicus; assay: Diuretic activity (po); NI-No Increase; assay type: functional, organism-based; conditions: Urine
[23] = system: Rattus norvegicus; assay: Diuretic activity (ip);NI- No Increase; assay type: functional, organism-based; conditions: Urine
[24] = system: Rattus norvegicus; assay: Diuretic activity (po);NI-No increase; assay type: functional, organism-based; conditions: Urine
[25] = system: Canis familiaris; assay: Diuretic activity (ip) was tested in dogs; assay type: functional, organism-based; conditions: Canis lupus familiaris; Urine

Sequence of Angiotensin-converting enzyme (Homo sapiens) (P12821 whole entry): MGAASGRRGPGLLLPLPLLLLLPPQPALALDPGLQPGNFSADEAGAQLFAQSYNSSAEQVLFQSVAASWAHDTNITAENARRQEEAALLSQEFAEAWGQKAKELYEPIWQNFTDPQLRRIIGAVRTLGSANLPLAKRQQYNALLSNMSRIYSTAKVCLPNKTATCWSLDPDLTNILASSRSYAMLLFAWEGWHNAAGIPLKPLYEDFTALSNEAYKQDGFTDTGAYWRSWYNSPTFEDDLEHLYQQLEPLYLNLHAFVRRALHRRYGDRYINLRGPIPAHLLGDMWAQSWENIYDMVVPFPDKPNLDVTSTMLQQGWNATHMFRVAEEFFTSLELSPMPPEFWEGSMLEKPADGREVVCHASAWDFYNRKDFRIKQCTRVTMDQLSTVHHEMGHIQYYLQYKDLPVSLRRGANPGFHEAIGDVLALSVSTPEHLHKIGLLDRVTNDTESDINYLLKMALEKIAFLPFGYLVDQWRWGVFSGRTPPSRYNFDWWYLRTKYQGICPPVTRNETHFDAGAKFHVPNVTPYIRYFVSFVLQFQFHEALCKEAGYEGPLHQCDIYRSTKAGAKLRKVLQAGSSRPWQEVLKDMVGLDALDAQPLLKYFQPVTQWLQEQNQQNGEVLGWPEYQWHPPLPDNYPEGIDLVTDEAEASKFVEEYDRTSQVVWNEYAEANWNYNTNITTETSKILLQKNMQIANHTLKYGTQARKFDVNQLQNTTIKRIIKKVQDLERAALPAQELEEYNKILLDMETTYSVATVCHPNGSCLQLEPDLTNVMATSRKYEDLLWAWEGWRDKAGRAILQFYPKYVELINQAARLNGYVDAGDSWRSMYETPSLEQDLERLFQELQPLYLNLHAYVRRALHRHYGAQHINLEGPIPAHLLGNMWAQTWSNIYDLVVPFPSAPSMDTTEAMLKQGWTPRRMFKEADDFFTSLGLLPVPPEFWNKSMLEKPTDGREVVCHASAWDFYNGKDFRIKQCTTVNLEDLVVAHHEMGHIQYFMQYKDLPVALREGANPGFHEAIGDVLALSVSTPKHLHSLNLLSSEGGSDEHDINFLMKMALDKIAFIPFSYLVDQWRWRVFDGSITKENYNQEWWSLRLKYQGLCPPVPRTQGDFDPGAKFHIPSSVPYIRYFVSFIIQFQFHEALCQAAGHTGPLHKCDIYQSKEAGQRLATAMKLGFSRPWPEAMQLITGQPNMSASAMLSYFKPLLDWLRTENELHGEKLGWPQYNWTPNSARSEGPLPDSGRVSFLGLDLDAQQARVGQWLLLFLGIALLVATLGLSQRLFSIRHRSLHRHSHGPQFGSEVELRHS

| Compound | ACE inhibition [3] [%] | Duration [5] [h] | ACE inhibition [6] [%] | ACE inhibition [7] [%] | IC50 [8] [µM] | IC50 [10] [nM] | other results |
| --- | --- | --- | --- | --- | --- | --- | --- |
| CCOC(=O)[C@H](CCc1ccccc1)N[C@@H](C)C(=O)N(CC(=O)O)[C@H](CC(C)C)C1Nc2cc(Cl)c(S(N)(=O)=O)cc2S(=O)(=O)N1.Cl (stereo not given in full) | < 30 | <1 |  |  |  |  | inhibition [1]: < 20%; Activity [2]: 50%; Activity [4]: No increase |
| CCOC(=O)c1cc(S(N)(=O)=O)c(NCCCC[C@H](C(=O)O)N(Cc2ccccc2)C(=O)[C@H](C)N[C@@H](CCc2ccccc2)C(=O)OCC)cc1Cl.Cl |  | 3 | 80 | < 30 | 22 |  | Activity [9]: No increase |
| NS(=O)(=O)c1cc2c(cc1Cl)NC(CN(CC(=O)O)C(=O)[C@H](CCCCNC(=O)OCc1ccccc1)N[C@@H](CCc1ccccc1)C(=O)O)NS2(=O)=O (stereo not given in full) |  | <1 | 100 |  |  | 240 | Activity [4]: No increase |
| Cl.NCCCC[C@H](N[C@@H](CCc1ccccc1)C(=O)O)C(=O)N(CC(=O)O)CC1Nc2cc(Cl)c(S(N)(=O)=O)cc2S(=O)(=O)N1 (stereo not given in full) | 80 | 3 | 100 | 100 | 0.22 |  | ACE inhibition [11]: 80%; inhibition [12]: 100%; Activity [13]: Natriuresis and diuresis; Decrease [14]: 0%; Activity [15]: Natriuresis and diuresis |
| C[C@H](N[C@@H](CCc1ccccc1)C(=O)O)C(=O)N(CCCC1Nc2cc(Cl)c(S(N)(=O)=O)cc2S(=O)(=O)N1)CC(=O)O.Cl (stereo not given in full) | 50 | > 3 | 100 | 100 | 0.23 |  | ACE inhibition [11]: 50%; inhibition [16]: > 100%; Activity [17]: Natriuresis and diuresis; Decrease [14]: 14%; Activity [18]: Natriuresis and diuresis |
| CCOC(=O)C(CCc1ccccc1)N[C@@H](C)C(=O)N(C1Cc2ccccc2C1)[C@H](CCCCNC(=O)c1ccc(Cl)c(S(N)(=O)=O)c1)C(=O)O.Cl (stereo not given in full) |  | 3 | 50 | 50 |  |  | Activity [19]: Natriuresis and diuresis |
| Br.C[C@H](N[C@@H](CCc1ccccc1)C(=O)O)C(=O)N(C1CCC2(CC1)Nc1cc(Cl)c(S(N)(=O)=O)cc1S(=O)(=O)N2)C(CCCCN)C(=O)O (stereo not given in full) |  | <1 |  | 50 | 95 |  | Activity [19]: Natriuresis and diuresis |
| CCOC(=O)[C@H](CCc1ccccc1)N[C@@H](C)C(=O)N(CC(=O)O)N(C)CC1Nc2cc(Cl)c(S(N)(=O)=O)cc2S(=O)(=O)N1.Cl (stereo not given in full) |  | <1 |  | 50 |  |  | inhibition [1]: 74%; Activity [2]: 80%; Activity [18]: Natriuresis and diuresis |
| CCOC(=O)[C@H](CCc1ccccc1)N[C@@H](C)C(=O)N(CC(=O)O)Cc1cc(C(C)(C)C)cc(I)c1O |  |  | 80 | < 30 | 80 |  | Activity [20]: No increase |
| CCOC(=O)c1cc(S(N)(=O)=O)c(Cl)cc1NCCCC[C@H](C(=O)O)N(Cc1ccccc1)C(=O)[C@H](C)N[C@@H](CCc1ccccc1)C(=O)OCC.Cl | 50 | <1 | 100 | 80 | 28 |  | ACE inhibition [11]: 80%; Activity [20]: No increase |
| C[C@H](N[C@@H](CCc1ccccc1)C(=O)O)C(=O)N(CC(=O)O)[C@H](C)C1Nc2cc(Cl)c(S(N)(=O)=O)cc2S(=O)(=O)N1 (stereo not given in full) |  | 3 |  | 80 | 2.7 |  | ACE inhibition [11]: < 30% |
| C[C@H](N[C@@H](CCc1ccccc1)C(=O)O)C(=O)N(CCCNC(=O)c1ccc(Cl)c(S(N)(=O)=O)c1)CC(=O)O |  |  |  |  |  | 38000 | Activity [21]: No increase |
| C[C@H](N[C@@H](CCc1ccccc1)C(=O)O)C(=O)N(CC(=O)O)CC(=O)Nc1cc(C(=O)O)cc(S(N)(=O)=O)c1Cl.Cl |  | 3 | 80 | < 30 | 2.2 |  | ACE inhibition [11]: < 30%; Activity [22]: No increase |
| Cl.NS(=O)(=O)c1cc(C(=O)NCCCC[C@H](N[C@@H](CCc2ccccc2)C(=O)O)C(=O)N2CCC[C@H]2C(=O)O)ccc1Cl | 80 | >3 | 100 | 100 |  | 6.5 | Activity [23]: No increase; Activity [4]: No increase |
| Cl.NS(=O)(=O)c1cc(C(=O)NCCCC[C@H](N[C@@H](CCc2ccccc2)C(=O)O)C(=O)N(CC(=O)O)C2Cc3ccccc3C2)ccc1Cl |  | 3 |  |  |  | 7 | Activity [4]: No increase |
| C[C@H](N[C@@H](CCc1ccccc1)C(=O)O)C(=O)N(CC(=O)O)C1CCC2(CC1)Nc1cc(Cl)c(S(N)(=O)=O)cc1S(=O)(=O)N2 (stereo not given in full) |  | 3 |  | 80 | 3.5 |  |  |
| CCOC(=O)[C@H](CCc1ccccc1)N[C@@H](CCCCNC(=O)c1ccc(Cl)c(S(N)(=O)=O)c1)C(=O)N1CCC[C@H]1C(=O)O.Cl | 80 | 3 | 80 | 80 |  | 15000 | Activity [19]: Natriuresis and diuresis |
| CCOC(=O)[C@H](CCc1ccccc1)N[C@@H](CCCCNC(=O)c1ccc(Cl)c(S(N)(=O)=O)c1)C(=O)N(CC(=O)O)C1Cc2ccccc2C1.Cl | 50 | >3 |  | 100 |  | 40 | Activity [2]: 100%; Activity [24]: No increase |
| C[C@H](CS)C(=O)N1CCC[C@H]1C(=O)O |  |  |  |  |  |  | Activity [25]: inactive |
| C[C@H](N[C@@H](CCc1ccccc1)C(=O)O)C(=O)N(CC(=O)O)Cc1cc(C(C)(C)C)cc(I)c1O.Cl |  | 3 | 100 |  | 0.16 |  | Activity [9]: No increase |
